From ChEMBL document CHEMBL4311936, “Synthesis and structure-activity relationship studies of IgG-binding peptides focused on the C-terminal histidine residue” (Medchemcomm, 2019)
Bridge positions count the residues as written; N and C are the ends. Square brackets hold non-standard residues; d marks the D form. Peptide text beside a SMILES is read from it. * marks the point of attachment. ξ: configuration not given here. NH(4-OH-benzyl) = Oc1ccc(CN*)cc1; ξ2Pal = NC(Cc1ccccn1)C(=O)O; ξ3Pal = NC(Cc1cccnc1)C(=O)O; ξ4Pal = NC(Cc1ccncc1)C(=O)O; ξ2Thi = NC(Cc1cccs1)C(=O)O; ξCha = NC(CC1CCCCC1)C(=O)O; ξOrn = NCCCC(N)C(=O)O; ξDab = NCCC(N)C(=O)O

How the values were obtained:
[1] = Binding affinity to human IgG assessed as dissociation constant by SPR analysis
Homo sapiens [2] = species on record: Homo sapiens; assay: Binding affinity to human IgG assessed as association rate constant by SPR analysis
Homo sapiens [3] = species on record: Homo sapiens; assay: Binding affinity to human IgG assessed as dissociation rate constant by SPR analysis

Structure (SMILES) | Kd [1] [nM] | Ka (Homo sapiens [2]) [M⁻¹ s⁻¹] | Kdiss (Homo sapiens [3]) [s⁻¹]
CC(=O)N[C@@H](CC(=O)O)C(=O)N[C@H]1CSSC[C@@H](C(=O)N[C@H](C(=O)N[C@@H](Cc2ccccc2)C(=O)NC(Cc2cccnc2)C(N)=O)[C@@H](C)O)NC(=O)[C@H](Cc2c[nH]c3ccccc23)NC(=O)[C@H](C(C)C)NC(=O)[C@H](CC(C)C)NC(=O)[C@H](CCC(=O)O)NC(=O)CNC(=O)[C@H](CCCCN)NC(=O)[C@H](Cc2cnc[nH]2)NC(=O)[C@H](Cc2ccc(O)cc2)NC(=O)[C@H](C)NC1=O (some centres not stated) (Ac-DCAYHKGELVWCTF[ξ3Pal]-NH2; disulfide 2-12) | 550 | 772000 | 0.425
CC(=O)N[C@@H](CC(=O)O)C(=O)N[C@H]1CSSC[C@@H](C(=O)N[C@H](C(=O)N[C@@H](Cc2ccccc2)C(=O)NC(Cc2ccncc2)C(N)=O)[C@@H](C)O)NC(=O)[C@H](Cc2c[nH]c3ccccc23)NC(=O)[C@H](C(C)C)NC(=O)[C@H](CC(C)C)NC(=O)[C@H](CCC(=O)O)NC(=O)CNC(=O)[C@H](CCCCN)NC(=O)[C@H](Cc2cnc[nH]2)NC(=O)[C@H](Cc2ccc(O)cc2)NC(=O)[C@H](C)NC1=O (some centres not stated) (Ac-DCAYHKGELVWCTF[ξ4Pal]-NH2; disulfide 2-12) | 533 | 730000 | 0.389
CC(=O)N[C@@H](CC(=O)O)C(=O)N[C@H]1CSSC[C@@H](C(=O)N[C@H](C(=O)N[C@@H](Cc2ccccc2)C(=O)NC(CCCN)C(N)=O)[C@@H](C)O)NC(=O)[C@H](Cc2c[nH]c3ccccc23)NC(=O)[C@H](C(C)C)NC(=O)[C@H](CC(C)C)NC(=O)[C@H](CCC(=O)O)NC(=O)CNC(=O)[C@H](CCCCN)NC(=O)[C@H](Cc2cnc[nH]2)NC(=O)[C@H](Cc2ccc(O)cc2)NC(=O)[C@H](C)NC1=O (some centres not stated) (Ac-DCAYHKGELVWCTF[ξOrn]-NH2; disulfide 2-12) | 710 | – | –
CC(=O)N[C@@H](CC(=O)O)C(=O)N[C@H]1CSSC[C@@H](C(=O)N[C@H](C(=O)N[C@@H](Cc2ccccc2)C(=O)NC(Cc2ccccn2)C(N)=O)[C@@H](C)O)NC(=O)[C@H](Cc2c[nH]c3ccccc23)NC(=O)[C@H](C(C)C)NC(=O)[C@H](CC(C)C)NC(=O)[C@H](CCC(=O)O)NC(=O)CNC(=O)[C@H](CC(C)C)NC(=O)[C@H](Cc2cnc[nH]2)NC(=O)[C@H](Cc2ccc(O)cc2)NC(=O)[C@H](C)NC1=O (mixture of isomers) | 2.19 | 1.49e+06 | 0.00326
CC(=O)N[C@@H](CC(=O)O)C(=O)N[C@H]1CSSC[C@@H](C(=O)N[C@H](C(=O)N[C@@H](Cc2ccccc2)C(=O)NC(CCN)C(N)=O)[C@@H](C)O)NC(=O)[C@H](Cc2c[nH]c3ccccc23)NC(=O)[C@H](C(C)C)NC(=O)[C@H](CC(C)C)NC(=O)[C@H](CCC(=O)O)NC(=O)CNC(=O)[C@H](CCCCN)NC(=O)[C@H](Cc2cnc[nH]2)NC(=O)[C@H](Cc2ccc(O)cc2)NC(=O)[C@H](C)NC1=O (some centres not stated) (Ac-DCAYHKGELVWCTF[ξDab]-NH2; disulfide 2-12) | 1020 | 731000 | 0.749
CC(=O)N[C@@H](CC(=O)O)C(=O)N[C@H]1CSSC[C@@H](C(=O)N[C@H](C(=O)N[C@@H](Cc2ccccc2)C(=O)N[C@@H](C)C(N)=O)[C@@H](C)O)NC(=O)[C@H](Cc2c[nH]c3ccccc23)NC(=O)[C@H](C(C)C)NC(=O)[C@H](CC(C)C)NC(=O)[C@H](CCC(=O)O)NC(=O)CNC(=O)[C@H](CCCCN)NC(=O)[C@H](Cc2cnc[nH]2)NC(=O)[C@H](Cc2ccc(O)cc2)NC(=O)[C@H](C)NC1=O (Ac-DCAYHKGELVWCTFA-NH2; disulfide 2-12) | 841 | 567000 | 0.477
CC(=O)N[C@@H](CC(=O)O)C(=O)N[C@H]1CSSC[C@@H](C(=O)N[C@H](C(=O)N[C@@H](Cc2ccccc2)C(=O)N[C@@H](Cc2c[nH]c3ccccc23)C(N)=O)[C@@H](C)O)NC(=O)[C@H](Cc2c[nH]c3ccccc23)NC(=O)[C@H](C(C)C)NC(=O)[C@H](CC(C)C)NC(=O)[C@H](CCC(=O)O)NC(=O)CNC(=O)[C@H](CCCCN)NC(=O)[C@H](Cc2cnc[nH]2)NC(=O)[C@H](Cc2ccc(O)cc2)NC(=O)[C@H](C)NC1=O (Ac-DCAYHKGELVWCTFW-NH2; disulfide 2-12) | 1220 | – | –
CC(=O)N[C@@H](CC(=O)O)C(=O)N[C@H]1CSSC[C@@H](C(=O)N[C@H](C(=O)N[C@@H](Cc2ccccc2)C(=O)NC(Cc2cccs2)C(N)=O)[C@@H](C)O)NC(=O)[C@H](Cc2c[nH]c3ccccc23)NC(=O)[C@H](C(C)C)NC(=O)[C@H](CC(C)C)NC(=O)[C@H](CCC(=O)O)NC(=O)CNC(=O)[C@H](CCCCN)NC(=O)[C@H](Cc2cnc[nH]2)NC(=O)[C@H](Cc2ccc(O)cc2)NC(=O)[C@H](C)NC1=O (some centres not stated) (Ac-DCAYHKGELVWCTF[ξ2Thi]-NH2; disulfide 2-12) | 220 | 771000 | 0.169
CC(=O)N[C@@H](CC(=O)O)C(=O)N[C@H]1CSSC[C@@H](C(=O)N[C@H](C(=O)N[C@@H](Cc2ccccc2)C(=O)NC(Cc2ccccn2)C(N)=O)[C@@H](C)O)NC(=O)[C@H](Cc2c[nH]c3ccccc23)NC(=O)[C@H](C(C)C)NC(=O)[C@H](CC(C)C)NC(=O)[C@H](CCC(=O)O)NC(=O)CNC(=O)[C@H](CCCCN)NC(=O)[C@H](Cc2cnc[nH]2)NC(=O)[C@H](Cc2ccc(O)cc2)NC(=O)[C@H](C)NC1=O (mixture of isomers) | 75.7 | 764000 | 0.0579
CC(=O)N[C@@H](CC(=O)O)C(=O)N[C@H]1CSSC[C@@H](C(=O)N[C@H](C(=O)N[C@@H](Cc2ccccc2)C(=O)N[C@@H](Cc2ccccc2)C(N)=O)[C@@H](C)O)NC(=O)[C@H](Cc2c[nH]c3ccccc23)NC(=O)[C@H](C(C)C)NC(=O)[C@H](CC(C)C)NC(=O)[C@H](CCC(=O)O)NC(=O)CNC(=O)[C@H](CCCCN)NC(=O)[C@H](Cc2cnc[nH]2)NC(=O)[C@H](Cc2ccc(O)cc2)NC(=O)[C@H](C)NC1=O (Ac-DCAYHKGELVWCTFF-NH2; disulfide 2-12) | 506 | 713000 | 0.361
CC(=O)N[C@@H](CC(=O)O)C(=O)N[C@H]1CSSC[C@@H](C(=O)N[C@H](C(=O)N[C@@H](Cc2ccccc2)C(=O)N[C@H](Cc2ccccn2)C(N)=O)[C@@H](C)O)NC(=O)[C@H](Cc2c[nH]c3ccccc23)NC(=O)[C@H](C(C)C)NC(=O)[C@H](CC(C)C)NC(=O)[C@H](CCC(=O)O)NC(=O)CNC(=O)[C@H](CCCCN)NC(=O)[C@H](Cc2cnc[nH]2)NC(=O)[C@H](Cc2ccc(O)cc2)NC(=O)[C@H](C)NC1=O | 579 | 593000 | 0.344
CC(=O)N[C@@H](CC(=O)O)C(=O)N[C@H]1CSSC[C@@H](C(=O)N[C@H](C(=O)N[C@@H](Cc2ccccc2)C(=O)NC(Cc2ccccn2)C(=O)O)[C@@H](C)O)NC(=O)[C@H](Cc2c[nH]c3ccccc23)NC(=O)[C@H](C(C)C)NC(=O)[C@H](CC(C)C)NC(=O)[C@H](CCC(=O)O)NC(=O)CNC(=O)[C@H](CC(C)C)NC(=O)[C@H](Cc2cnc[nH]2)NC(=O)[C@H](Cc2ccc(O)cc2)NC(=O)[C@H](C)NC1=O (some centres not stated) (Ac-DCAYHLGELVWCTF[ξ2Pal]-OH; disulfide 2-12) | 2.48 | 1.35e+06 | 0.0033
CC(=O)N[C@@H](CC(=O)O)C(=O)N[C@H]1CSSC[C@@H](C(=O)N[C@H](C(=O)N[C@@H](Cc2ccccc2)C(=O)N[C@H](Cc2ccccn2)C(N)=O)[C@@H](C)O)NC(=O)[C@H](Cc2c[nH]c3ccccc23)NC(=O)[C@H](C(C)C)NC(=O)[C@H](CC(C)C)NC(=O)[C@H](CCC(=O)O)NC(=O)CNC(=O)[C@H](CC(C)C)NC(=O)[C@H](Cc2cnc[nH]2)NC(=O)[C@H](Cc2ccc(O)cc2)NC(=O)[C@H](C)NC1=O | 23 | 1.32e+06 | 0.0304
CC(=O)N[C@@H](CC(=O)O)C(=O)N[C@H]1CSSC[C@@H](C(=O)N[C@H](C(=O)N[C@@H](Cc2ccccc2)C(=O)NC(CC2CCCCC2)C(N)=O)[C@@H](C)O)NC(=O)[C@H](Cc2c[nH]c3ccccc23)NC(=O)[C@H](C(C)C)NC(=O)[C@H](CC(C)C)NC(=O)[C@H](CCC(=O)O)NC(=O)CNC(=O)[C@H](CCCCN)NC(=O)[C@H](Cc2cnc[nH]2)NC(=O)[C@H](Cc2ccc(O)cc2)NC(=O)[C@H](C)NC1=O (some centres not stated) (Ac-DCAYHKGELVWCTF[ξCha]-NH2; disulfide 2-12) | 165 | 776000 | 0.128
CC(=O)N[C@@H](CC(=O)O)C(=O)N[C@H]1CSSC[C@@H](C(=O)N[C@H](C(=O)N[C@@H](Cc2ccccc2)C(=O)N[C@@H](Cc2cnc[nH]2)C(=O)NCC(N)=O)[C@@H](C)O)NC(=O)[C@H](Cc2c[nH]c3ccccc23)NC(=O)[C@H](C(C)C)NC(=O)[C@H](CC(C)C)NC(=O)[C@H](CCC(=O)O)NC(=O)CNC(=O)[C@H](CCCCN)NC(=O)[C@H](Cc2cnc[nH]2)NC(=O)[C@H](Cc2ccc(O)cc2)NC(=O)[C@H](C)NC1=O (Ac-DCAYHKGELVWCTFHG-NH2; disulfide 2-12) | 338 | 615000 | 0.208
CC(=O)N[C@@H](CC(=O)O)C(=O)N[C@H]1CSSC[C@@H](C(=O)N[C@H](C(=O)N[C@@H](Cc2ccccc2)C(=O)N[C@@H](Cc2cnc[nH]2)C(=O)NCc2ccc(O)cc2)[C@@H](C)O)NC(=O)[C@H](Cc2c[nH]c3ccccc23)NC(=O)[C@H](C(C)C)NC(=O)[C@H](CC(C)C)NC(=O)[C@H](CCC(=O)O)NC(=O)CNC(=O)[C@H](CCCCN)NC(=O)[C@H](Cc2cnc[nH]2)NC(=O)[C@H](Cc2ccc(O)cc2)NC(=O)[C@H](C)NC1=O (Ac-DCAYHKGELVWCTFH-{NH(4-OH-benzyl)}; disulfide 2-12) | 203 | 603000 | 0.122
CC(=O)N[C@@H](CC(=O)O)C(=O)N[C@H]1CSSC[C@@H](C(=O)N[C@H](C(=O)N[C@@H](Cc2ccccc2)C(=O)NC(Cc2ccccn2)C(=O)O)[C@@H](C)O)NC(=O)[C@H](Cc2c[nH]c3ccccc23)NC(=O)[C@H](C(C)C)NC(=O)[C@H](CC(C)C)NC(=O)[C@H](CCC(=O)O)NC(=O)CNC(=O)[C@H](CCCCN)NC(=O)[C@H](Cc2cnc[nH]2)NC(=O)[C@H](Cc2ccc(O)cc2)NC(=O)[C@H](C)NC1=O (mixture of isomers) | 97.6 | 690000 | 0.0674
